Results reported in patent publication US20040166575A1, “Inosine producing bacterium belonging to the genus Bacillus and method for producing inosine” (priority 2003, published 2004).
Values joined by “and” are separate entries in the source; they are usually repeats but may differ in a detail not shown here. Equal entries are not always repeated.

How the values were obtained:
[1] = test system: Bacillus subtilis recombinant strain KMBS16 (purR, purA, deoD deficient); assay: Assay for degree of 6-ethoxypurine resistance: colony growth on minimal medium plate, parent strain; assay type: cell-based; settings: for Relative growth degree / Diameter of colony: KMBS16; for Relative growth degree: colony diameter with 2000 mg/L 6-ethoxypurine / without ×100; for Diameter of colony: minimal medium plate containing 6-ethoxypurine (2000 μg/mL)
[2] = test system: 6-ethoxypurine-resistant strain EP1 (AJ13937); assay: Assay for degree of 6-ethoxypurine resistance: colony growth on minimal medium plate, EP1 strain; assay type: cell-based, Bacillus subtilis; settings: for Relative growth degree / Diameter of colony: EP1; for Relative growth degree: colony diameter with 2000 mg/L 6-ethoxypurine / without ×100; for Diameter of colony: minimal medium plate containing 6-ethoxypurine (2000 μg/mL)
[3] = test system: 6-ethoxypurine-resistant strain EP2; assay: Assay for degree of 6-ethoxypurine resistance: colony growth on minimal medium plate, EP2 strain; assay type: cell-based, Bacillus subtilis; settings: for Relative growth degree / Diameter of colony: EP2; for Relative growth degree: colony diameter with 2000 mg/L 6-ethoxypurine / without ×100; for Diameter of colony: minimal medium plate containing 6-ethoxypurine (2000 μg/mL)
Protocol: Relative growth degree (%)=[colony diameter (mm) observed in the medium containing 6-ethoxypurine]/[colony diameter (mm) observed in the medium not containing 6-ethoxypurine]×100
The Bacillus subtilis recombinant strain KMBS16 deficient in the purine operon repressor gene (purR), succinyl-AMP synthase gene (purA) and purine nucleoside phosphorylase gene (deoD) was treated with 400 μg/ml of nitrosoguanidine (NTG) at 37° C. for 30 minutes. Then, the NTG-treated cell suspension was spread on a minimal medium (20 g/L of glucose, 5 g/L of ammonium chloride, 4 g/L of potassium dihydrogenphosphate, 0.01 g/L of ferrous sulfate, 0.01 g/L of manganese sulfate, 0.5 g/L of sodium citrate, 1.0 g/L of L-glutamic acid, 0.1 g/L of adenine, 50 mg/L of tryptophan, pH 7.0) plate containing 2000 mg/L of 6-ethoxypurine, and the cells were cultured at 37° C. for 24 hours. […] The EP1 strain was given a private number of AJ13937. This strain was deposited at the independent administrative agency, National Institute of Advanced Industrial Science and Technology, International Patent Organism Depositary (Tsukuba Central 6, 1-1, Higashi 1-Chome, Tsukuba-shi, Ibaraki-ken, 305-8566, Japan) on Dec. 25, 2001 and received an accession number of FERM P-18665. Then, it was transferred to an international deposit under the provisions of the Budapest Treaty on Jan. 14, 2004, and received an accession number of FERM BP-08595.
Degree of 6-ethoxypurine resistance of the mutant strain obtained as described above was examined in detail. The parent strain and the mutant strain were adenine auxotrophic, and the drug used was a purine analogue. Therefore, the amount of adenine added to the minimal medium was limited to the required minimum level (2 mg/L in this example).
The 6-ethoxypurine-resistant strains (EP1 strain and EP2 strain) and the parent strain KMBS16 were each inoculated into the minimum liquid medium and cultured overnight at 34° C. The cells were separated from the culture broth by centrifugation, washed three times with the minimal medium and suspended again in the same medium. The suspension was appropriately diluted with the same medium and spread on a minimal medium plate and a minimal medium plate containing 2000 mg/L of 6-ethoxypurine, and the cells were cultured at 34° C. […] The culture was continued even thereafter, and diameters of several single colonies were measured after […] to 66 hours. An average of colony diameters was calculated for each strain, and the relative growth degree was calculated according to the aforementioned equation.
In the tables, the symbol “−” means that no colony could be confirmed, and the symbol “±” means that since the colonies were indefinite, the diameters could not be measured.

## CCOc1ncnc2nc[nH]c12 [6-ethoxypurine]
[1]; 0 hr
  Relative growth degree: 0%
[1]; 42 hr
  Relative growth degree: 50.0% and 40.0%
[1]; 45 hr
  Relative growth degree: 58.3% and 41.7%
[1]; 48 hr
  Relative growth degree: 66.7% and 50.0%
[1]; 52 hr
  Relative growth degree: 66.7%
[1]; 66 hr
  Relative growth degree: 62.5% and 50.0%
[1]; 34° C., 28 hr
  Diameter of colony: −
[1]; 34° C., 42 hr
  Diameter of colony: 0.50 mm and 0.40 mm
[1]; 34° C., 45 hr
  Diameter of colony: 0.70 mm and 0.50 mm
[1]; 34° C., 48 hr
  Diameter of colony: 1.00 mm and 0.75 mm
[1]; 34° C., 52 hr
  Diameter of colony: 1.00 mm
[1]; 34° C., 66 hr
  Diameter of colony: 1.25 mm and 1.00 mm
[1]; parent strain KMBS16, minimal medium plate containing 2000 mg/L of 6-ethoxypurine, 34° C., 24 hours
  colony formation after 24 hours: no colony was confirmed
[2]; 0 hr
  Relative growth degree: 0%
[2]; 42 hr
  Relative growth degree: 80.0% and 100.0%
[2]; 45 hr
  Relative growth degree: 83.3%
[2]; 48 hr
  Relative growth degree: 80.0%
[2]; 52 hr
  Relative growth degree: 100.0%
[2]; 34° C., 28 hr
  Diameter of colony: ±
[2]; 34° C., 42 hr
  Diameter of colony: 1.00 mm and 0.80 mm
[2]; 34° C., 45 hr
  Diameter of colony: 1.20 mm and 1.00 mm
[2]; 34° C., 48 hr
  Diameter of colony: 1.50 mm and 1.20 mm
[2]; 34° C., 52 hr
  Diameter of colony: 1.50 mm
[2]; 34° C., 66 hr
  Diameter of colony: 2.00 mm and 2.50 mm
[2]; EP1 strain, minimal medium plate containing 2000 mg/L of 6-ethoxypurine, 34° C., 24 hours
  colony formation after 24 hours: minute colonies were confirmed
[3]; 0 hr
  Relative growth degree: 0%
[3]; 42 hr
  Relative growth degree: 100.0%
[3]; 34° C., 28 hr
  Diameter of colony: ±
[3]; 34° C., 42 hr
  Diameter of colony: 1.00 mm
[3]; 34° C., 45 hr
  Diameter of colony: 1.20 mm
[3]; 34° C., 48 hr
  Diameter of colony: 1.50 mm
[3]; 34° C., 52 hr
  Diameter of colony: 1.50 mm
[3]; 34° C., 66 hr
  Diameter of colony: 2.00 mm
[3]; EP2 strain, minimal medium plate containing 2000 mg/L of 6-ethoxypurine, 34° C., 24 hours
  colony formation after 24 hours: minute colonies were confirmed
